We go through two molecules from the NIST ThermoML archive (doi:10.1021/acs.jced.6b00031).

As usually defined, the mass density is the mass of a sample divided by its volume.

The nature of the series: wn = mass fraction of the nth substance listed. The settings on record: 101.3 kPa, Liquid, Vibrating tube method.

Numbers after ± are expanded uncertainties.

With `O=C(O)CCC(=O)O` [butanedioic acid] + CCO, the mass density is reported as 836.8 ± 0.5 kg/m3 (283.15 K, w1 = 0.0569); 843.8 ± 0.5 kg/m3 (303.15 K, w1 = 0.1084); 868.6 ± 0.5 kg/m3 (313.15 K, w1 = 0.1419).
For `O=C(O)CCCCC(=O)O` [1,6-hexanedioic acid] + CCO, the mass density is, setting by setting: (283.15 K, w1 = 0.0695) 837.4 ± 0.5 kg/m3; (303.15 K, w1 = 0.1382) 852.3 ± 0.5 kg/m3; (313.15 K, w1 = 0.1853) 870.4 ± 0.5 kg/m3.
